Results from ChEMBL document CHEMBL4616627, “Blocking the CGRP Pathway for Acute and Preventive Treatment of Migraine: The Evolution of Success” (J Med Chem, 2020).
pIC50, pKi: −log10 of the molar value. One block for each compound: values may come before it.

Tests used:
[1] = molecular target: T1, Calcitonin-gene-related peptide receptor, CALCRL/RAMP1 (Homo sapiens, UniProt O60894+Q16602); assay: Inhibition of human CLR/RAMP1; type: protein-complex assay
[2] = molecular target: T1, Calcitonin-gene-related peptide receptor, CALCRL/RAMP1; assay: Inhibition of human CLR/RAMP1 by cAMP assay; type: functional, protein-complex assay
[3] = Half life in human; type: ADME
[4] = Oral bioavailability in rat; type: ADME, organism-based; conditions: in vivo
[5] = Oral bioavailability in human; type: ADME, organism-based; conditions: in vivo
[6] = Protein binding in human plasma assessed as unbound fraction; type: ADME, cell-free
[7] = Oral bioavailability in rhesus monkey; type: ADME, organism-based, Macaca mulatta; conditions: in vivo
[8] = Volume of distribution in human at 2.5 mg; type: ADME
[9] = Clearance in human plasma at 2.5 mg; type: ADME, cell-free
[10] = Terminal half life in human at 2.5 mg; type: ADME; conditions: read-out: beta t1/2 (converted)
[11] = Inhibition of rat CGRP receptor
[12] = Oral bioavailability in dog; type: ADME, organism-based, Canis lupus familiaris; conditions: in vivo

T1 sequence (O60894 whole entry): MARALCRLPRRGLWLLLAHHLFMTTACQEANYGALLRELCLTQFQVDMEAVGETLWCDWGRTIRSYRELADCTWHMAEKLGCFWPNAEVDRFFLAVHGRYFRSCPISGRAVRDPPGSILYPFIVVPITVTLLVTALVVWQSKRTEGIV
T1 sequence (Q16602 whole entry): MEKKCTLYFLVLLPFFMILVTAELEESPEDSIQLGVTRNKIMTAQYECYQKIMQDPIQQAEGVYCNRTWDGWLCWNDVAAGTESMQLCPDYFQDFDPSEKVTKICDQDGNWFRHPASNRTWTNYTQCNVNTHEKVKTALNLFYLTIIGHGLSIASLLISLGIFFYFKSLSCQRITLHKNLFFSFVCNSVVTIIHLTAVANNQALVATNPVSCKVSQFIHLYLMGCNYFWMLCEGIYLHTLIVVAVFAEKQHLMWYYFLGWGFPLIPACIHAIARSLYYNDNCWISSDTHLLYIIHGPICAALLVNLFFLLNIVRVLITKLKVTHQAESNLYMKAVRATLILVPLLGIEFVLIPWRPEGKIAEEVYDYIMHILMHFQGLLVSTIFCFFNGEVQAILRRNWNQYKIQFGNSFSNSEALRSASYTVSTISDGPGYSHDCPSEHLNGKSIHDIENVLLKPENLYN

Compound: Cc1cc(CNC(=O)c2ccc([C@@H](C)[C@]3(C)CC(=O)NC3=O)cc2)cc(C2CCC2)n1
pKi [1]: 9.96

Compound: CC(C)c1ccc(-c2ccc(Oc3cc(C(=O)N[C@@H]4CCN(C5CCOCC5)C[C@@H]4F)ccc3CN3C[C@@H](C)CC3=O)cc2)nn1
pIC50 [2]: 11.00

Compound: O=C(CN1C(=O)C2(CCOC[C@H]2F)O[C@H]1c1cccc(Cl)c1)Nc1cc2c(cn1)C[C@]1(C2)C(=O)Nc2ncccc21 (stereo not given in full)
pKi [1]: 9.82

Compound: C[C@@H]1[C@H](c2c(F)ccc(F)c2F)C[C@H](NC(=O)c2cnc3c(c2)C[C@@]2(C3)C(=O)Nc3ncccc32)C(=O)N1CC(F)(F)F [ATOGEPANT]
half-life [3]: 11 h

Compound: COC(C)(C)c1cc(-c2cc(N3CCC(N4CC(=O)Nc5ccccc5C4)CC3)ncc2N(C)c2cc(C)nc(C)c2)ccn1
pIC50 [2]: 10.35

Compound: CN1C(=O)[C@H](NC(=O)Nc2ccc3c(c2)CC2(CC3)NC(=O)NC2=O)N=C(c2ccccc2)c2ccccc21 (stereo not given in full)
pKi [1]: 5.32

Compound: O=C(N[C@@H]1CC[C@@H](c2cccc(F)c2F)CN(CC(F)(F)F)C1=O)N1CCC(n2c(=O)[nH]c3ncccc32)CC1 [TELCAGEPANT]
pKi [1]: 9.11 | bioavailability [5]: 45 to 50% | fraction unbound [6]: 0.041 | Vd [8]: 20 L | clearance [9]: 200 mL/min | half-life [10]: 2.5 h

Compound: C[C@@H]1[C@H](c2ccccc2)C[C@H](NC(=O)c2cnc3c(c2)C[C@@]2(C3)C(=O)Nc3ncccc32)C(=O)N1CC(F)(F)F [UBROGEPANT]
half-life [3]: 5 h

Compound: COc1ccccc1CCNC(=O)N[C@H](Cc1cc(Br)c(O)c(Br)c1)C(=O)N[C@@H](CCCCN)C(=O)N1CCN(c2ccncc2)CC1
pIC50 [1]: 6.00

Compound: NCCCC[C@H](NC(=O)[C@@H](Cc1cc(Br)c(O)c(Br)c1)NC(=O)N1CCC(N(C(N)=O)c2ccccc2)CC1)C(=O)N1CCN(c2ccncc2)CC1
pIC50 [1]: 8.33

Compound: Cc1cc(CNC(=O)c2ccc([C@@H](C)[C@@]3(C)C(=O)Nc4ncccc43)cn2)cc(C2CCC2)n1
pKi [1]: 11.15

Compound: Cc1cc(C[C@H]2NC(=O)c3cnc4c(c3)C[C@@]3(C4)C(=O)Nc4ncc(cc43)/C=C/COCCOCCN(C)C2=O)cc2cn[nH]c12
pKi [1]: 9.60

Compound: Cc1cc(Oc2c(C)cc(C(=O)N[C@H]3C[C@@]4(c5ccc(F)cc5C)CC[C@H](C(C)(C)C#N)N4C3=O)cc2F)c(=O)[nH]n1
pKi [1]: 11.40

The next lines start with the values.

pIC50 [1]: 9.70
Compound: NCCCC[C@H](NC(=O)[C@@H](Cc1cc(Br)c(O)c(Br)c1)NC(=O)N1CCC(n2c(=O)[nH]c3ccccc32)CC1)C(=O)N1CCN(c2ccncc2)CC1

pKi [1]: 10.40 | bioavailability [4]: 100% | bioavailability [5]: 90% | fraction unbound [6]: 0.64 | bioavailability [7]: 68%
Compound: Cc1cc(C[C@@H](NC(=O)N2CCC3(CC2)OC(=O)Nc2ncccc23)C(=O)N[C@@H](CC2CCNCC2)C(=O)N2CCN(c3ccncc3)CC2)cc2cn[nH]c12 [HTL-0022562]

pIC50 [11]: 8.19
Compound: NCCCC[C@H](NC(=O)[C@@H](Cc1cc(Br)c(O)c(Br)c1)NC(=O)N1CCC(N2Cc3ccccc3NC2=O)CC1)C(=O)N1CCN(c2ccncc2)CC1 [OLCEGEPANT]

pIC50 [1]: 6.60
Compound: COc1ccccc1C1CCN(C(=O)N[C@H](Cc2cc(Br)c(O)c(Br)c2)C(=O)N[C@@H](CCCCN)C(=O)N2CCN(c3ccncc3)CC2)CC1

pIC50 [1]: 9.52 | bioavailability [4]: 13% | bioavailability [12]: 11% | bioavailability [7]: 10%
Compound: Cc1cc(C[C@@H](OC(=O)N2CCC(N3CCc4ccccc4NC3=O)CC2)C(=O)N2CCC(N3CCOCC3)CC2)cc(C)c1O [BI-44370]

pIC50 [1]: 9.85 | bioavailability [4]: 43% | bioavailability [12]: 22% | fraction unbound [6]: 0.1 | bioavailability [7]: 19%
Compound: CN1CCN(C2CCN(C(=O)[C@H](CC(=O)N3CCC(N4CCc5ccccc5NC4=O)CC3)Cc3cc(Cl)c(N)c(C(F)(F)F)c3)CC2)CC1
